A word on the IC50: it is the concentration needed to halve the response being measured.

Each structure is given as a SMILES string. Structures can show the parent of a compound that is named as a salt.

From BindingDB's records for doi:10.1021/jm960799i (Dupont Pharmaceuticals, 1997) come the findings set out here.

The assay deals with Integrin alpha-IIb/beta-3 (Homo sapiens, UniProt P08514+P05106). Kind of assay: In vitro inhibition of ADP-induced platelet aggregation in human platelet rich plasma (hPRP).
Sequence of Integrin alpha-IIb/beta-3 (P05106 27-788 limits assumed): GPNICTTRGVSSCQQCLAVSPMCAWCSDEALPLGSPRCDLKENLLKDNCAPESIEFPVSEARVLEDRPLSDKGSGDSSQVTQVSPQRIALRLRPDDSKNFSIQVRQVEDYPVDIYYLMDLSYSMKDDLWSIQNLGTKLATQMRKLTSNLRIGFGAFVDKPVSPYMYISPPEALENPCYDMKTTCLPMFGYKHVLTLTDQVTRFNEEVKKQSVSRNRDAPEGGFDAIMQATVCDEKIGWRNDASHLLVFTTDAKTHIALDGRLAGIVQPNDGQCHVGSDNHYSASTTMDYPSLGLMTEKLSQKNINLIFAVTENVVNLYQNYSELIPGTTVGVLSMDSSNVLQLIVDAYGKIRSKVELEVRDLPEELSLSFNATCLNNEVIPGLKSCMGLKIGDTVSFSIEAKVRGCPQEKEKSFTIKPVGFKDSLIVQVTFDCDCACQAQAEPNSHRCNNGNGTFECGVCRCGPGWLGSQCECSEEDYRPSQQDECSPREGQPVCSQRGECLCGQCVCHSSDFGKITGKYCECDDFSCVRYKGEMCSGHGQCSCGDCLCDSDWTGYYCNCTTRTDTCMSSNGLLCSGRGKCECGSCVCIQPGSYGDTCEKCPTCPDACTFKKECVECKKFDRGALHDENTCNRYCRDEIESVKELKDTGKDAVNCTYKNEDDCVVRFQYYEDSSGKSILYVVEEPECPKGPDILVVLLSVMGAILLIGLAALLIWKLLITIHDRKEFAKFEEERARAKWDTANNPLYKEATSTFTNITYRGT
Sequence of Integrin alpha-IIb/beta-3 (P08514 32-887 limits assumed): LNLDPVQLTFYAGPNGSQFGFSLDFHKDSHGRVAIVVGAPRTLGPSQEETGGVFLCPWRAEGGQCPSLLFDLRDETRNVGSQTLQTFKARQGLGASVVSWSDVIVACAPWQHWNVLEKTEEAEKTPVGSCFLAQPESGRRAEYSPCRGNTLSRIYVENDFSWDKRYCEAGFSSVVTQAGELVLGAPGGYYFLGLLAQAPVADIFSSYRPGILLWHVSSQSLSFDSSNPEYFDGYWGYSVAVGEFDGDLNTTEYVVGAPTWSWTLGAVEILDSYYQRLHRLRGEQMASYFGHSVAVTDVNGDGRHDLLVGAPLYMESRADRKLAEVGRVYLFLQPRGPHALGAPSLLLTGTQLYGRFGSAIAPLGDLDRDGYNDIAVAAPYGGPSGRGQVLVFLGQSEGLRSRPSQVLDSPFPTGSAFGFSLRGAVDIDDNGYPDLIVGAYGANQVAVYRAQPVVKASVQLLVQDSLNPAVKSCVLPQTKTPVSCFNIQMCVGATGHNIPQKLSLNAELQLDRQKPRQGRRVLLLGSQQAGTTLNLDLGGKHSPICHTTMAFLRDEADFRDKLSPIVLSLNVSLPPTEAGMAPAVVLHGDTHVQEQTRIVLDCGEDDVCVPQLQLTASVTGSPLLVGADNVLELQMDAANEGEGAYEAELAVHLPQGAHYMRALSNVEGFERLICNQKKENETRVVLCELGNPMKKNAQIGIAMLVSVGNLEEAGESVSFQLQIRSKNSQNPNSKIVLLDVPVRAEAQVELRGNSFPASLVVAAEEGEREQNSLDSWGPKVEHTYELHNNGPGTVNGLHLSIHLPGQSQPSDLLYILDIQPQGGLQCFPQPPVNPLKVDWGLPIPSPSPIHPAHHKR
Sequence of Integrin alpha-IIb/beta-3 (P08514 891-1039 limits assumed): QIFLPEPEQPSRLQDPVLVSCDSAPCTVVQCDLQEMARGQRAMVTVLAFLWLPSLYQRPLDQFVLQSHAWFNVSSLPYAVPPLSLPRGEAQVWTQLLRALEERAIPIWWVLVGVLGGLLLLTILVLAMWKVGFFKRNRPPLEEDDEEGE
As to `N=C(N)c1ccc(C2=NOC(CC(=O)NC[C@H](NC(=O)OCCC3CC3)C(=O)O)C2)cc1` (stereo partly drawn) [(S)-3-{2-[3-(4-Carbamimidoyl-phenyl)-4,5-dihydro-isoxazol-5-yl]-acetylamino}-2-(2-cyclopropyl-ethoxycarbonylamino)-propionic acid; TFA], the midpoint of inhibition, the IC50, lay at 36 nM. The same measure for `N=C(N)c1ccc(C2=NOC(CC(=O)NC[C@H](NC(=O)OCCC(F)(F)F)C(=O)O)C2)cc1` (stereo partly drawn) [(S)-3-{2-[3-(4-Carbamimidoyl-phenyl)-4,5-dihydro-isoxazol-5-yl]-acetylamino}-2-(3,3,3-trifluoro-propoxycarbonylamino)-propionic acid; TFA]: 31 nM; for `N=C(N)c1ccc(C2=NOC(CC(=O)NC[C@H](NC(=O)CCc3ccccc3)C(=O)O)C2)cc1` (stereo partly drawn) [(S)-3-{2-[3-(4-Carbamimidoyl-phenyl)-4,5-dihydro-isoxazol-5-yl]-acetylamino}-2-(3-phenyl-propionylamino)-propionic acid; TFA]: 31 nM. `COC(=O)[C@H](CNC(=O)CC1CC(c2ccc(C(=N)N)cc2)=NO1)NC(=O)Nc1ccccc1` (stereo partly drawn) [(S)-3-{2-[3-(4-Carbamimidoyl-phenyl)-4,5-dihydro-isoxazol-5-yl]-acetylamino}-2-(3-phenyl-ureido)-propionic acid methyl ester; TFA] had a 50% inhibitory concentration (IC50) of 69 nM. Turning to `CCc1ccc(C(=O)N[C@@H](CNC(=O)CC2CC(c3ccc(C(=N)N)cc3)=NO2)C(=O)O)cc1` (stereo partly drawn) [(S)-3-{2-[3-(4-Carbamimidoyl-phenyl)-4,5-dihydro-isoxazol-5-yl]-acetylamino}-2-(4-ethyl-benzoylamino)-propionic acid; TFA], the 50% inhibitory concentration (IC50) came out at 49 nM. Compound `N=C(N)c1ccc(C2=NOC(CC(=O)NC[C@H](NC(=O)c3ccc4ccccc4c3)C(=O)O)C2)cc1` (stereo partly drawn) [(S)-3-{2-[3-(4-Carbamimidoyl-phenyl)-4,5-dihydro-isoxazol-5-yl]-acetylamino}-2-[(naphthalene-2-carbonyl)-amino]-propionic acid; TFA] came in with an IC50 of 61 nM. As for `CCCCCCOC(=O)N[C@@H](CNC(=O)CC1CC(c2ccc(C(=N)N)cc2)=NO1)C(=O)O` (stereo partly drawn) [(S)-3-{2-[3-(4-Carbamimidoyl-phenyl)-4,5-dihydro-isoxazol-5-yl]-acetylamino}-2-hexyloxycarbonylamino-propionic acid; TFA], the figure is 41 nM. As for `CC(C)COC(=O)N[C@@H](CNC(=O)CC1CC(c2ccc(C(=N)N)cc2)=NO1)C(=O)O` (stereo partly drawn) [(S)-3-{2-[3-(4-Carbamimidoyl-phenyl)-4,5-dihydro-isoxazol-5-yl]-acetylamino}-2-isobutoxycarbonylamino-propionic acid; TFA], the figure is 47 nM; as for `CC(C)OC(=O)N[C@@H](CNC(=O)CC1CC(c2ccc(C(=N)N)cc2)=NO1)C(=O)O` (stereo partly drawn) [(S)-3-{2-[3-(4-Carbamimidoyl-phenyl)-4,5-dihydro-isoxazol-5-yl]-acetylamino}-2-isopropoxycarbonylamino-propionic acid; TFA], 130 nM; as for `COC(=O)N[C@@H](CNC(=O)CC1CC(c2ccc(C(=N)N)cc2)=NO1)C(=O)O` (stereo partly drawn) [(S)-3-{2-[3-(4-Carbamimidoyl-phenyl)-4,5-dihydro-isoxazol-5-yl]-acetylamino}-2-methoxycarbonylamino-propionic acid; TFA], 65 nM.

With `N=C(N)c1ccc(C2=NOC(CC(=O)NC[C@H](NC(=O)OCCc3ccccc3)C(=O)O)C2)cc1` (stereo partly drawn) [(S)-3-{2-[3-(4-Carbamimidoyl-phenyl)-4,5-dihydro-isoxazol-5-yl]-acetylamino}-2-phenethyloxycarbonylamino-propionic acid; TFA], the IC50 was found to be 55 nM.

For the compound `N=C(N)c1ccc(C2=NOC(CC(=O)N[C@@H](CC(=O)O)C(=O)N3CCSCC3)C2)cc1` (stereo partly drawn) [(S)-3-{2-[3-(4-Carbamimidoyl-phenyl)-4,5-dihydro-isoxazol-5-yl]-acetylamino}-4-oxo-4-thiomorpholin-4-yl-butyric acid; TFA], the concentration for half-maximal inhibition (IC50) came to 360 nM. In turn, `N=C(N)c1ccc(C2=NOC(CC(=O)N[C@H](CC(=O)O)Cc3ccccc3)C2)cc1` (stereo partly drawn) [(S)-3-{2-[3-(4-Carbamimidoyl-phenyl)-4,5-dihydro-isoxazol-5-yl]-acetylamino}-4-phenyl-butyric acid; hydrochloride] yielded an IC50 of 1400 nM. As for `N=C(N)c1ccc(C2=NOC(CC(=O)N[C@@H](CC(=O)O)C(=O)NCCc3ccccc3)C2)cc1` (stereo partly drawn) [(S)-3-{2-[3-(4-Carbamimidoyl-phenyl)-4,5-dihydro-isoxazol-5-yl]-acetylamino}-N-phenethyl-succinamic acid; TFA], the figure is 68 nM; as for `N=C(N)c1ccc(C2=NO[C@@H](CC(=O)N[C@@H](CC(=O)O)c3cccnc3)C2)cc1` [(S)-3-{2-[(R)-3-(4-Carbamimidoyl-phenyl)-4,5-dihydro-isoxazol-5-yl]-acetylamino}-3-pyridin-3-yl-propionic acid; TFA], 170 nM. As for `N=C(N)c1ccc(C2=NOC(CC(=O)N[C@@H](CC(=O)O)C(=O)N3CCC4CCC(CC4)C3)C2)cc1` (stereo partly drawn) [(S)-4-(3-Aza-bicyclo[4.2.2]dec-3-yl)-3-{2-[3-(4-carbamimidoyl-phenyl)-4,5-dihydro-isoxazol-5-yl]-acetylamino}-4-oxo-butyric acid; TFA], the figure is 210 nM. The same measure for `N=C(N)c1ccc(C2=NOC(CC(=O)N[C@@H](CC(=O)O)C(=O)NCC34CC5CC(CC(C5)C3)C4)C2)cc1` (stereo partly drawn) [(S)-N-Adamantan-1-ylmethyl-3-{2-[3-(4-carbamimidoyl-phenyl)-4,5-dihydro-isoxazol-5-yl]-acetylamino}-succinamic acid; TFA]: 95 nM; for `N=C(N)c1ccc(C2=NOC(CC(=O)N[C@@H](CC(=O)O)C(=O)NC3C4CC5CC(C4)CC3C5)C2)cc1` (stereo partly drawn) [(S)-N-Adamantan-2-yl-3-{2-[3-(4-carbamimidoyl-phenyl)-4,5-dihydro-isoxazol-5-yl]-acetylamino}-succinamic acid; TFA]: 140 nM. For `CCCCN(Cc1ccccc1)C(=O)[C@H](CC(=O)O)NC(=O)CC1CC(c2ccc(C(=N)N)cc2)=NO1` (stereo partly drawn) [(S)-N-Benzyl-N-butyl-3-{2-[3-(4-carbamimidoyl-phenyl)-4,5-dihydro-isoxazol-5-yl]-acetylamino}-succinamic acid; TFA], the IC50 is 180 nM.
